Legend:
[1] = tested on: zebrafish larvae, 120 hpf; experiment: Larval photomotor response (LPR) assay after vial exposure; assay type: in vivo, Danio rerio; conditions: for LPR behavioral effect: 120 hpf, light/dark periods, result in words; for fold_change: LPR
Description: (§1) When embryos were 6 hpf they were bleached in groups of 1000 or less to limit bacterial growth in sealed vials. Embryos were placed in a strainer for transfer between solutions in 500 mL containers. […] Pools of eight embryos were placed into 2 mL clear glass screw cap exposure vials with polyvinyl-faced pulp liner (Avantar Radnor, PA, United States) using a glass Pasteur pipette. Excess EM was removed, and 2 mL of fresh EM was immediately added. A total of 10 uL of 200x working stock (in DMSO) was added to each vial, then immediately capped and inverted three times to mix. […] Vials were loaded into a custom 3D printed vial holder for slow end-over-end rotation in a dark 28 °C incubator overnight. […] At 24 hpf, embryos were removed from exposure vials and singulated into 96-well plates loaded with 100 μL chemical-free EM. Each exposure vial group was maintained in plate columns. After loading into 96-well plates, embryos were assessed for 24-hour mortality. For the remainder of the exposure, plates were kept stationary at 28 °C in the dark, until 120 hpf when morphology screening and the larval photo motor response (LPR) assay were conducted, section 2.3.2 and section 2.3.3, respectively.
Each treatment group was replicated over four vials, resulting in 32 embryos per treatment, split over two replicate 96-well plates per chemical. […] Vial groups of plated larvae were tracked to assess the impact of the vial on the results. All reported concentrations were nominal water concentrations and are included in SI-T4.
The LPR assay was conducted at 120 hpf. […] Larval movement was tracked throughout minutes 6–24. Animals dead or morphologically abnormal were excluded from the analysis, and if more than 30 % of the wells in a treatment group were excluded, the treatment was removed.
Movement values were binned into 6s intervals, log normalized and used to calculate area under the curve (AUC). AUC values from the first cycle after calibration were used to calculate the LEL for each period (light and dark).

[2] = tested on: early life stage zebrafish (Danio rerio) embryos; experiment: Developmental toxicity morphology screen, sealed rotating vial exposure; assay type: in vivo; parameters: bmd, MO24 / bmd, MORT / bmd, ANY_ / bmd, AXIS / bmd, CRAN / bmd, EDEM / bmd, LTRK / bmd, MUSC / bmdL, ANY_ / bmdU, ANY_ / bmdL, AXIS / bmdU, AXIS / bmdL, CRAN / bmdU, CRAN / bmdL, EDEM / bmdU, EDEM / bmdL, LTRK / bmdU, LTRK / bmdL, MO24 / bmdU, MO24 / bmdL, MORT / bmdU, MORT: unit not given here; conditions: for BMC50 Any effect: Fig. 2 heatmap, exposure 6-24 hpf in vials, summary of all endpoints; for any effect BMD50: SI-T5; for bmd, MO24: endpoint MO24; for bmd, MORT: endpoint MORT; for bmd, ANY_: morphology endpoint ANY_ (any effect); for bmd, AXIS: morphology endpoint AXIS; for bmd, CRAN: morphology endpoint CRAN; for bmd, EDEM: morphology endpoint EDEM
Description: as §1
Each treatment group was replicated over four vials, resulting in 32 embryos per treatment, split over two replicate 96-well plates per chemical. […] All reported concentrations were nominal water concentrations and are included in SI-T4.
At 24 hpf embryos were assessed for mortality (MO24). At 120 hpf embryos were assessed for abnormality in […] morphological endpoints: mortality (MORT), edemas (EDEM), bent axis (AXIS), touch response (TCHR), craniofacial (CRAN), muscular/cardiovascular (MUSC), lower trunk (LRTK), brain (BRAN), skin (SKIN), and notochord malformations (NC). Morphological assessments were made by a team of three to four individuals. The team was blinded to the identity, plate layout, and concentrations of the chemicals, thereby minimizing bias in morphological screening assessment. To ensure the assessments were consistent, concentration–response reproducibility of a parathion ethyl quality control plate was performed along with each experimental exposure set up. Details of all measured endpoints can be found at Developmental toxicity zebrafish phenotype atlas. […] Each endpoint was scored as a binary presence/absence and scores were compiled into an “Any effect” endpoint, the presence of abnormality in any individual endpoint.
The Any effect percent was used to calculate the BMC50, 50 % change relative to the background for each endpoint and chemical. All values were reported as the nominal exposure concentration.

[3] = period dark, round 1, conc 3.125
[4] = period dark, round 1, conc 6.25
[5] = period dark, round 1, conc 12.5
[6] = period light, round 1, conc 3.125
[7] = period light, round 1, conc 6.25
[8] = period light, round 1, conc 12.5

Cc1cccc2ccccc12 [1-methylnaphthalene]
LPR behavioral effect [1]: active
fold_change [1, 3]: -0.2838
fold_change [1, 4]: -0.4018
fold_change [1, 5]: -0.5302
fold_change ([1]; period dark, round 1, conc 25): -0.8382
fold_change ([1]; period dark, round 1, conc 50): -0.8713
fold_change [1, 6]: 0.7433
fold_change [1, 7]: 0.645
fold_change [1, 8]: 0.113
fold_change ([1]; period light, round 1, conc 25): 0.4697
fold_change ([1]; period light, round 1, conc 50): 0.667
morphological effects (BMC50 for any morphological endpoint) ([2]; 0-50 μM, result in words): no morphological BMC50 values

Cc1cccc2cccc(C)c12 [1,8-dimethylnaphthalene]
fold_change [1, 3]: -0.1333
fold_change [1, 4]: 0.3857
fold_change [1, 5]: -0.2522
fold_change ([1]; period dark, round 1, conc 25): -0.4588
fold_change ([1]; period dark, round 2, conc 30): -0.4155
fold_change ([1]; period dark, round 2, conc 37.5): -0.7493
fold_change ([1]; period dark, round 2, conc 45): -0.6849
fold_change [1, 6]: 0.4922
fold_change [1, 7]: 0.5326
fold_change [1, 8]: -0.3791
fold_change ([1]; period light, round 1, conc 25): 0.4908
fold_change ([1]; period light, round 2, conc 30): -0.235
fold_change ([1]; period light, round 2, conc 37.5): -0.3043
fold_change ([1]; period light, round 2, conc 45): 1.248
BMC50 MO24 (mortality at 24 hpf) ([2]; Fig. 2, nominal concentration): 49.8 µM
BMC50 MORT (mortality at 120 hpf) ([2]; Fig. 2, nominal concentration): 48.7 µM
BMC50 Any effect ([2]; nominal concentration): 41.2 µM
any effect BMD50 [2]: 41.15 µM
bmd, MO24 ([2]; benchmark dose): 49.8371
bmd, MORT ([2]; benchmark dose): 48.678
bmd, ANY_ ([2]; benchmark dose): 41.1508

Cc1cc2c(C)ccc(C)c2cc1C [1,4,6,7-tetramethylnaphthalene]
fold_change [1, 3]: 0.4047
fold_change [1, 4]: -0.3364
fold_change [1, 5]: -0.3332
fold_change [1, 6]: -0.4049
fold_change [1, 7]: 0.02072
fold_change [1, 8]: -0.2213
BMC50 AXIS (curved or bent body axis at 120 hpf) ([2]; Fig. 2, nominal concentration): 21.1 µM
BMC50 CRAN (craniofacial malformation at 120 hpf) ([2]; Fig. 2, nominal concentration): 23.9 µM
BMC50 EDEM (pericardial and/or yolk sac edema at 120 hpf) ([2]; Fig. 2, nominal concentration): 22.5 µM
BMC50 LTRK (lower trunk and/or caudal fin at 120 hpf) ([2]; Fig. 2, nominal concentration): 22.6 µM
BMC50 MO24 (mortality at 24 hpf) ([2]; Fig. 2, nominal concentration): 35.4 µM
BMC50 MORT (mortality at 120 hpf) ([2]; Fig. 2, nominal concentration): 29.4 µM
BMC50 Any effect ([2]; nominal concentration): 20.5 µM
any effect BMD50 [2]: 20.47 µM
bmd, MO24 ([2]; benchmark dose): 35.4057
bmd, MORT ([2]; benchmark dose): 29.3744
bmd, ANY_ ([2]; benchmark dose): 20.4728
bmd, AXIS ([2]; benchmark dose): 21.1106
bmd, CRAN ([2]; benchmark dose): 23.8517
bmd, EDEM ([2]; benchmark dose): 22.5215
bmd, LTRK ([2]; benchmark dose, morphology endpoint LTRK): 22.6067

Cc1ccc2ccccc2c1C [1,2-dimethylnaphthalene]
LPR behavioral effect [1]: active

Cc1ccc2c(C)cccc2c1 [1,6-dimethylnaphthalene]
BMC50 AXIS (curved or bent body axis at 120 hpf) ([2]; Fig. 2, nominal concentration): 46.6 µM
BMC50 CRAN (craniofacial malformation at 120 hpf) ([2]; Fig. 2, nominal concentration): 42.5 µM
BMC50 EDEM (pericardial and/or yolk sac edema at 120 hpf) ([2]; Fig. 2, nominal concentration): 46 µM
BMC50 MO24 (mortality at 24 hpf) ([2]; Fig. 2, nominal concentration): 46.6 µM
BMC50 MORT (mortality at 120 hpf) ([2]; Fig. 2, nominal concentration): 43.4 µM
BMC50 Any effect ([2]; nominal concentration): 34.6 µM
any effect BMD50 [2]: 34.56 µM
bmd, MO24 ([2]; benchmark dose): 46.5621
bmd, MORT ([2]; benchmark dose): 43.4183
bmd, ANY_ ([2]; benchmark dose): 34.5645
bmd, AXIS ([2]; benchmark dose): 46.5655
bmd, CRAN ([2]; benchmark dose): 42.4789
bmd, EDEM ([2]; benchmark dose): 45.9847
